Source: US20160158200A1, “Combinations of Hepatitis C Virus Inhibitors” (priority 2013, published 2016)

Assays:
[1] = test system: HCV genotype 1a L31V variant with leucine 31 changed to valine in the NS5A protein; assay: microbe, parasite or virus in culture; format: cell-based; settings: genotype 1a L31V replicon; test compound titrated with compound N47 fixed at 200 nM versus singly
[2] = test system: HCV genotype 1a Y93H variant with tyrosine 93 changed to histidine in the NS5A protein; assay: microbe, parasite or virus in culture; format: cell-based; settings: genotype 1a Y93H replicon; test compound titrated with compound N47 fixed at 200 nM versus singly
In short: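 In an HCV genotype 1a replicon cell-based assay carrying the NS5A Y93H substitution, BMS-790052 was tested alone and in combination with a fixed amount of a second test compound. The combinations were examined for synergistic activity.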

With `COC(=O)N[C@H](C(=O)N1CCC[C@H]1c1nc2ccc3cc(-c4ccc5c(ccc6nc([C@@H]7CCCN7C(=O)[C@@H](NC(=O)OC)C(C)C)[nH]c65)c4)ccc3c2[nH]1)C(C)C` the “Fold-Synergistic G-1a (L31V)” value [1] was over 100 fold and the “Fold-Synergistic G-1a (Y93H)” value [2] was over 100 fold.

For `O=C1C(c2ccccc2)N(c2ccc(-c3cnc(-c4ccc(N5C(=O)C6CCCN6C(=O)C5c5ccccc5)cc4)o3)cc2)C(=O)C2CCCN12` (stereo not shown), the “Fold-Synergistic G-1a (L31V)” value [1] was under 10 fold and the “Fold-Synergistic G-1a (Y93H)” value [2] was under 10 fold.

In the case of `O=C(Nc1ccc(-c2ccc(NC(=O)[C@@H]3CCCN3C(=O)Cc3ccccc3)cc2)cc1)[C@@H]1CCCN1C(=O)Cc1ccccc1`, the “Fold-Synergistic G-1a (L31V)” value [1] is reported as under 10 fold and the “Fold-Synergistic G-1a (Y93H)” value [2] is reported as under 10 fold.

`COC(=O)N[C@H](C(=O)N1[C@@H]2C[C@@H]2C[C@H]1c1nc2ccc(C#CC#Cc3ccc4nc([C@@H]5C[C@H]6C[C@H]6N5C(=O)[C@@H](NC(=O)OC)C(C)C)[nH]c4c3)cc2[nH]1)C(C)C` was tested, and the “Fold-Synergistic G-1a (L31V)” value [1] was over 10 fold and the “Fold-Synergistic G-1a (Y93H)” value [2] was over 100 fold.

With `COC(=O)N[C@H](C(=O)N1[C@H]2C[C@@]2(C)C[C@H]1c1ncc(-c2ccc(-c3ccc(-c4cnc([C@@H]5C[C@]6(C)C[C@@H]6N5C(=O)[C@@H](NC(=O)OC)C(C)C)[nH]4)cc3)cc2)[nH]1)C(C)C` the “Fold-Synergistic G-1a (L31V)” value [1] was over 100 fold and the “Fold-Synergistic G-1a (Y93H)” value [2] was over 100 fold.

In the case of `COC(=O)N[C@H](C(=O)N1[C@@H]2C[C@@H]2C[C@H]1c1nc(-c2ccc3oc(-c4ccc(-c5cnc([C@@H]6C[C@H]7C[C@H]7N6C(=O)[C@@H](NC(=O)OC)C6CCOCC6)[nH]5)cc4)cc3c2)c[nH]1)C1CCOCC1`, the “Fold-Synergistic G-1a (L31V)” value [1] is reported as under 10 fold and the “Fold-Synergistic G-1a (Y93H)” value [2] is reported as under 10 fold.

In the case of `COC(=O)N[C@@H](C(=O)N1CCC[C@H]1c1ncc(C#CC#Cc2cnc([C@@H]3CCCN3C(=O)[C@H](NC(=O)OC)c3ccccc3)[nH]2)[nH]1)c1ccccc1`, the “Fold-Synergistic G-1a (L31V)” value [1] is reported as under 10 fold and the “Fold-Synergistic G-1a (Y93H)” value [2] is reported as under 10 fold.

With `COC(=O)N[C@H](C(=O)N1[C@@H](C)CC[C@H]1c1ncc(-c2ccc(-c3ccc(-c4cnc([C@@H]5CC[C@H](C)N5C(=O)[C@@H](NC(=O)OC)C(C)C)[nH]4)cc3)cc2)[nH]1)C(C)C` the “Fold-Synergistic G-1a (L31V)” value [1] was over 100 fold and the “Fold-Synergistic G-1a (Y93H)” value [2] was over 100 fold.

In the case of `COC(=O)N[C@H](C(=O)N1C[C@@H](C)C[C@H]1c1ncc(-c2ccc(-c3ccc4cc(-c5cnc([C@@H]6C[C@H](C)CN6C(=O)[C@@H](NC(=O)OC)C(C)C)[nH]5)ccc4c3)cc2)[nH]1)C(C)C`, the “Fold-Synergistic G-1a (L31V)” value [1] is reported as under 10 fold and the “Fold-Synergistic G-1a (Y93H)” value [2] is reported as over 10 fold.

`COC(=O)N[C@H](C(=O)N1[C@@H](C)CC[C@H]1c1ncc(-c2ccc3c(c2)Cc2cc(-c4cnc([C@@H]5CC[C@H](C)N5C(=O)[C@@H](NC(=O)OC)C(C)C)[nH]4)ccc2-3)[nH]1)C(C)C` was tested, and the “Fold-Synergistic G-1a (L31V)” value [1] was over 100 fold and the “Fold-Synergistic G-1a (Y93H)” value [2] was over 100 fold.

With `COC(=O)N[C@H](C(=O)N1[C@@H]2C[C@@H]2C[C@H]1c1ncc(-c2ccc([C@H]3C[C@@H]3c3ccc(-c4cnc([C@@H]5C[C@H]6C[C@H]6N5C(=O)[C@@H](NC(=O)OC)C(C)C)[nH]4)cc3)cc2)[nH]1)C(C)C` the “Fold-Synergistic G-1a (L31V)” value [1] was over 10 fold and the “Fold-Synergistic G-1a (Y93H)” value [2] was under 10 fold.

For `COC(=O)N[C@H](C(=O)N1CCC[C@H]1c1ncc(-c2ccc(-c3ccc4c(c3)CCc3nc([C@@H]5CCCN5C(=O)[C@@H](NC(=O)OC)C(C)C)[nH]c3-4)cc2)[nH]1)C(C)C`, the “Fold-Synergistic G-1a (L31V)” value [1] was over 100 fold and the “Fold-Synergistic G-1a (Y93H)” value [2] was over 100 fold.

In the case of `COC(=O)N[C@H](C(=O)N1CCC[C@H]1c1nc2ccc(-c3ccc4nc(-c5ccc6nc([C@@H]7CCCN7C(=O)[C@@H](NC(=O)OC)C(C)C)[nH]c6c5)ccc4c3)cc2[nH]1)C(C)C`, the “Fold-Synergistic G-1a (L31V)” value [1] is reported as over 10 fold and the “Fold-Synergistic G-1a (Y93H)” value [2] is reported as over 10 fold.

In the case of `COC(=O)N[C@@H](C(=O)N1CCC[C@H]1c1nc2ccc(C(=O)c3ccc4nc([C@@H]5CCCN5C(=O)[C@H](NC(=O)OC)c5ccccc5)[nH]c4c3)cc2[nH]1)c1ccccc1`, the “Fold-Synergistic G-1a (L31V)” value [1] is reported as under 10 fold and the “Fold-Synergistic G-1a (Y93H)” value [2] is reported as under 10 fold.

With `COC(=O)N[C@H](C(=O)N1[C@@H]2C[C@@H]2C[C@H]1c1ncc(-c2ccc3cc(-c4ccc5[nH]c([C@@H]6C[C@H]7C[C@H]7N6C(=O)[C@@H](NC(=O)OC)C(C)C)nc5c4)ccc3c2)[nH]1)C(C)C` the “Fold-Synergistic G-1a (L31V)” value [1] was over 100 fold and the “Fold-Synergistic G-1a (Y93H)” value [2] was over 100 fold.

For `COC(=O)N[C@H](C(=O)N1C[C@H](C)C[C@H]1c1ncc(-c2ccc(-c3ccc4cc(-c5cnc([C@@H]6C[C@@H](C)CN6C(=O)[C@@H](NC(=O)OC)C(C)C)[nH]5)ccc4c3)cc2)[nH]1)C(C)C`, the “Fold-Synergistic G-1a (L31V)” value [1] was under 10 fold and the “Fold-Synergistic G-1a (Y93H)” value [2] was over 10 fold.

With `COC(=O)N[C@@H](C(=O)N1CCC[C@H]1c1ncc(-c2ccc(-c3ccc(-c4cnc([C@@H]5CCCN5C(=O)[C@H]5CCCO5)[nH]4)cc3)cc2)[nH]1)c1ccccc1` the “Fold-Synergistic G-1a (L31V)” value [1] was under 10 fold and the “Fold-Synergistic G-1a (Y93H)” value [2] was under 10 fold.

For `COc1cccc2c(C(=O)N3CCC[C@H]3C(=O)Nc3ccc(-c4ncc(-c5ccc6nc([C@@H]7CCCN7C(=O)c7nc(Cl)cc8c(OC)cccc78)[nH]c6c5)o4)cc3)nc(Cl)cc12`, the “Fold-Synergistic G-1a (L31V)” value [1] was under 10 fold and the “Fold-Synergistic G-1a (Y93H)” value [2] was under 10 fold.

With `COC(=O)N[C@H](C(=O)N1[C@@H]2C[C@@H]2C[C@H]1c1ncc(-c2ccc([C@@H]3C[C@H]3c3ccc(-c4cnc([C@@H]5C[C@H]6C[C@H]6N5C(=O)[C@@H](NC(=O)OC)C(C)C)[nH]4)cc3)cc2)[nH]1)C(C)C` the “Fold-Synergistic G-1a (L31V)” value [1] was over 10 fold and the “Fold-Synergistic G-1a (Y93H)” value [2] was over 10 fold.

`O=C(Nc1ccc(/C=C/c2ccc(NC(=O)[C@@H]3COCN3C(=O)OCc3ccccc3)cc2)cc1)[C@@H]1COCN1C(=O)OCc1ccccc1` was tested, and the “Fold-Synergistic G-1a (L31V)” value [1] was under 10 fold and the “Fold-Synergistic G-1a (Y93H)” value [2] was under 10 fold.

With `COC(=O)N[C@H](C(=O)N1[C@@H]2C[C@@H]2C[C@H]1c1nc2cc(CCc3ccc4c(ccc5[nH]c([C@@H]6C[C@H]7C[C@H]7N6C(=O)[C@@H](NC(=O)OC)C6CCOCC6)nc54)c3)ccc2[nH]1)C(C)C` the “Fold-Synergistic G-1a (L31V)” value [1] was over 10 fold and the “Fold-Synergistic G-1a (Y93H)” value [2] was over 100 fold.

For `COC(=O)N[C@@H](C(=O)N1CCC[C@H]1c1ncc(-c2ccc(-c3ncc(-c4cnc([C@@H]5CCCN5C(=O)[C@H](NC(=O)OC)c5ccccc5)[nH]4)cn3)cc2)[nH]1)c1ccccc1`, the “Fold-Synergistic G-1a (L31V)” value [1] was under 10 fold and the “Fold-Synergistic G-1a (Y93H)” value [2] was under 10 fold.

With `COC(=O)N[C@H](C(=O)N1CCC[C@H]1c1ncc(C#Cc2ccc3cc(C#Cc4cnc([C@@H]5CCCN5C(=O)[C@@H](NC(=O)OC)C(C)C)[nH]4)ccc3c2)[nH]1)C(C)C` the “Fold-Synergistic G-1a (L31V)” value [1] was over 10 fold and the “Fold-Synergistic G-1a (Y93H)” value [2] was under 10 fold.

With `O=C(Nc1ccc(/C=C/c2ccc(NC(=O)[C@@H]3CCCN3C(=O)Cc3ccccc3)cc2)cc1)[C@@H]1CCCN1C(=O)Cc1ccccc1` the “Fold-Synergistic G-1a (L31V)” value [1] was under 10 fold and the “Fold-Synergistic G-1a (Y93H)” value [2] was under 10 fold.

In the case of `COC(=O)N[C@H](C(=O)N1[C@@H]2C[C@@H]2C[C@H]1c1nc(Cl)c(-c2ccc(-c3ccc(-c4[nH]c([C@@H]5C[C@H]6C[C@H]6N5C(=O)[C@@H](NC(=O)OC)C(C)C)nc4Cl)cc3)cc2)[nH]1)C(C)C`, the “Fold-Synergistic G-1a (L31V)” value [1] is reported as over 10 fold and the “Fold-Synergistic G-1a (Y93H)” value [2] is reported as under 10 fold.

`COC(=O)N[C@H](C(=O)N1CCC[C@H]1c1ncc(C#Cc2ccc(-c3ccc4nc([C@@H]5CCCN5C(=O)[C@@H](NC(=O)OC)C(C)C)[nH]c4c3)cc2)[nH]1)C(C)C` was tested, and the “Fold-Synergistic G-1a (L31V)” value [1] was over 100 fold and the “Fold-Synergistic G-1a (Y93H)” value [2] was over 100 fold.

`COC(=O)N[C@H](C(=O)N1CCC[C@H]1c1nc(C2=CCC(C3CC=C(c4c[nH]c([C@@H]5CCCN5C(=O)[C@@H](NC(=O)OC)C(C)C)n4)CC3)CC2)c[nH]1)C(C)C` (stereo partly shown) was tested, and the “Fold-Synergistic G-1a (L31V)” value [1] was over 100 fold and the “Fold-Synergistic G-1a (Y93H)” value [2] was over 100 fold.

In the case of `COC(=O)N[C@H](C(=O)N1CCC[C@H]1c1nc(-c2ccc(C#Cc3ccc4[nH]c([C@@H]5CCCN5C(=O)[C@@H](NC(=O)OC)C(C)C)nc4c3)cc2)c[nH]1)C(C)C`, the “Fold-Synergistic G-1a (L31V)” value [1] is reported as over 100 fold and the “Fold-Synergistic G-1a (Y93H)” value [2] is reported as over 100 fold.

With `Cc1nc(-c2ccc(NC(=O)[C@@H]3CCCN3C(=O)Cc3ccccc3)cc2)c(-c2ccc(NC(=O)[C@@H]3CCCN3C(=O)Cc3ccccc3)cc2)s1` the “Fold-Synergistic G-1a (L31V)” value [1] was under 10 fold and the “Fold-Synergistic G-1a (Y93H)” value [2] was under 10 fold.

In the case of `O=C(Cc1ccccc1)N1CCC[C@H]1c1nc2cc(CCc3ccc4nc([C@@H]5CCCN5C(=O)Cc5ccccc5)[nH]c4c3)ccc2[nH]1`, the “Fold-Synergistic G-1a (L31V)” value [1] is reported as under 10 fold and the “Fold-Synergistic G-1a (Y93H)” value [2] is reported as under 10 fold.

`COC(=O)N[C@H](C(=O)N1CCC[C@H]1c1nc2c([nH]1)CCc1cc(C#Cc3ccc4[nH]c([C@@H]5CCCN5C(=O)[C@@H](NC(=O)OC)C(C)C)nc4c3)ccc1-2)C(C)C` was tested, and the “Fold-Synergistic G-1a (L31V)” value [1] was over 100 fold and the “Fold-Synergistic G-1a (Y93H)” value [2] was over 100 fold.

In the case of `COC(=O)N[C@H](C(=O)N1CCC[C@H]1c1ncc(-c2ccc(-c3ccc4c(c3)CCCc3[nH]c([C@@H]5CCCN5C(=O)[C@@H](NC(=O)OC)C(C)C)nc3-4)cc2)[nH]1)C(C)C`, the “Fold-Synergistic G-1a (L31V)” value [1] is reported as over 100 fold and the “Fold-Synergistic G-1a (Y93H)” value [2] is reported as over 100 fold.

With `COC(=O)N[C@H](C(=O)N1CC2(CC2)C[C@H]1c1nc(-c2ccc3c(c2)C(F)(F)c2cc(-c4ccc5nc([C@@H]6[C@H]7CC[C@H](C7)N6C(=O)[C@@H](NC(=O)OC)C(C)C)[nH]c5c4)ccc2-3)c[nH]1)C(C)C` the “Fold-Synergistic G-1a (L31V)” value [1] was over 10 fold and the “Fold-Synergistic G-1a (Y93H)” value [2] was over 100 fold.

`CN(C)[C@@H](C(=O)N1CCC[C@H]1C(=O)Nc1cccc(-c2ncc(-c3ccc4nc([C@@H]5CCCN5C(=O)[C@@H](c5ccccc5)N(C)C)[nH]c4c3)o2)c1)c1ccccc1` was tested, and the “Fold-Synergistic G-1a (L31V)” value [1] was under 10 fold and the “Fold-Synergistic G-1a (Y93H)” value [2] was under 10 fold.

With `C=C1C[C@@H](c2nc(-c3ccc(-c4ccc5cc(-c6c[nH]c([C@@H]7CC(=C)CN7C(=O)[C@@H](NC(=O)OC)C(C)C)n6)ccc5c4)cc3)c[nH]2)N(C(=O)[C@@H](NC(=O)OC)C(C)C)C1` the “Fold-Synergistic G-1a (L31V)” value [1] was under 10 fold and the “Fold-Synergistic G-1a (Y93H)” value [2] was over 100 fold.
